≈ marks a conversion by molar mass, not a printed value. Like-named read-outs stand apart in the source and are kept apart here.
Tests used:
Assay in all cases: MIC, antimicrobial activity
[1] = tested on: Enterobacter cloacae TB-718; type: cell-based; details: for Minimum Inhibitory Concentration (MIC): Enterobacter cloacae TB-718; for MIC: Enterobacter cloacae, TB718, Enterobacter cloacae TB-718, read-out: Minimum Inhibitory Concentration (MIC)
Proteus mirabilis TB-617 = type: cell-based; details: for Minimum Inhibitory Concentration (MIC): Proteus mirabilis TB-617; for MIC: Proteus mirabilis, TB617, Proteus mirabilis TB-617, read-out: Minimum Inhibitory Concentration (MIC)
Proteus inconstans In-27 = type: cell-based; details: for Minimum Inhibitory Concentration (MIC): Proteus inconstans In-27, tobramycin resistant strain; for MIC: Providencia alcalifaciens, IN27, read-out: Minimum Inhibitory Concentration (MIC), Proteus inconstans In-27, tobramycin resistant strain
[2] = tested on: Staphylococcus aureus FDAJC; details: for Minimum Inhibitory Concentration (MIC): Staphylococcus aureus FDAJC; for MIC: Staphylococcus aureus, read-out: Minimum Inhibitory Concentration (MIC), Staphylococcus aureus FDAJC
[3] = tested on: Escherichia coli NIHJ JC-2; details: for Minimum Inhibitory Concentration (MIC): Escherichia coli NIHJ JC-2; for MIC: Escherichia coli
[4] = tested on: Escherichia coli W-677/JR-762; details: for Minimum Inhibitory Concentration (MIC): Escherichia coli W-677/JR-762, tobramycin resistant strain; for MIC: Escherichia coli, W677/JR762, read-out: Minimum Inhibitory Concentration (MIC), Escherichia coli W-677/JR-762, tobramycin resistant strain
[5] = tested on: Klebsiella pneumoniae Kl-38; details: for Minimum Inhibitory Concentration (MIC): Klebsiella pneumoniae Kl-38; for MIC: Klebsiella pneumoniae
[6] = tested on: Serratia marcescens ATCC 13880; details: for MIC: Serratia marcescens
Proteus rettgeri Ret 40 = details: for Minimum Inhibitory Concentration (MIC): Proteus rettgeri Ret 40; for MIC: Providencia rettgeri, RET40, read-out: Minimum Inhibitory Concentration (MIC), Proteus rettgeri Ret 40
[7] = tested on: Pseudomonas aeruginosa Ps-24; details: for Minimum Inhibitory Concentration (MIC): Pseudomonas aeruginosa Ps-24; for MIC: Pseudomonas aeruginosa
[8] = tested on: Pseudomonas aeruginosa PP-6; details: for MIC: Pseudomonas aeruginosa; for Minimum Inhibitory Concentration (MIC): Pseudomonas aeruginosa PP-6, tobramycin resistant strain
[9] = ATCC13880, read-out: Minimum Inhibitory Concentration (MIC)
[10] = PP6, read-out: Minimum Inhibitory Concentration (MIC)
[11] = NIHJJC2, read-out: Minimum Inhibitory Concentration (MIC)
[12] = KL38, read-out: Minimum Inhibitory Concentration (MIC)
[13] = ATCC13880, read-out: Minimum Inhibitory Concentration (MIC), Serratia marcescens ATCC 13880
[14] = PS24, read-out: Minimum Inhibitory Concentration (MIC), Pseudomonas aeruginosa Ps-24
[15] = PP6, read-out: Minimum Inhibitory Concentration (MIC), Pseudomonas aeruginosa PP-6, tobramycin resistant strain
[16] = NIHJJC2, read-out: Minimum Inhibitory Concentration (MIC), Escherichia coli NIHJ JC-2
[17] = KL38, read-out: Minimum Inhibitory Concentration (MIC), Klebsiella pneumoniae Kl-38

Compound | Minimum Inhibitory Concentration (MIC) [1] [µg/mL] | Minimum Inhibitory Concentration (MIC) (Proteus mirabilis TB-617) [µg/mL] | Minimum Inhibitory Concentration (MIC) [2] [µg/mL] | Minimum Inhibitory Concentration (MIC) [3] [µg/mL] | Minimum Inhibitory Concentration (MIC) [4] [µg/mL] | Minimum Inhibitory Concentration (MIC) [5] [µg/mL] | MIC [6, 9] [µg/mL] | Minimum Inhibitory Concentration (MIC) (Proteus rettgeri Ret 40) [µg/mL] | Minimum Inhibitory Concentration (MIC) [7] [µg/mL] | MIC [2] [µg/mL] | MIC [6, 13] [µg/mL] | MIC (Proteus rettgeri Ret 40) [µg/mL] | MIC [7, 14] [µg/mL] | MIC [8, 15] [µg/mL] | MIC [1] [µg/mL] | MIC (Proteus mirabilis TB-617) [µg/mL] | MIC (Proteus inconstans In-27) [µg/mL] | MIC [3, 16] [µg/mL] | MIC [4] [µg/mL] | MIC [5, 17] [µg/mL] | also measured
NC[C@H]1O[C@H](O[C@H]2[C@H](O)[C@@H](O[C@H]3O[C@H](CO)[C@@H](O)[C@H](N)[C@H]3O)[C@H](NC(=O)C(O)C3CCCN3)C[C@@H]2N)[C@H](N)C[C@@H]1O (stereo partly shown) [(6), 1-N-[2-hydroxy-2-(pyrrolidin-2-yl)acetyl]tobramycin] | 0.8 | 0.8 | 0.1 | 0.8 | 3.1 | 0.8 | 25 (≈ 42 µM) | 0.2 | 1.6 | – | – | – | – | – | – | – | – | – | – | – | Minimum Inhibitory Concentration (MIC) (Proteus inconstans In-27): > 100.0 µg/mL; MIC [8, 10]: 6.2 µg/mL (≈ 10.4 µM)
NC[C@H]1O[C@H](O[C@H]2[C@H](O)[C@@H](O[C@H]3O[C@H](CO)[C@@H](O)[C@H](N)[C@H]3O)[C@H](N)C[C@@H]2N)[C@H](N)C[C@@H]1O [TOB, tobramycin, reference compound] | – | – | – | – | – | – | – | – | – | 0.05 (≈ 0.107 µM) | 3.13 (≈ 6.69 µM) | 0.39 (≈ 0.834 µM) | 0.39 (≈ 0.834 µM) | 50 (≈ 107 µM) | – | – | – | – | – | – | MIC [3, 11]: 0.78 µg/mL (≈ 1.67 µM); MIC [5, 12]: 3.13 µg/mL (≈ 6.69 µM)
NC[C@H]1O[C@H](O[C@H]2[C@H](O)[C@@H](O[C@H]3O[C@H](CO)[C@@H](O)[C@H](N)[C@H]3O)[C@H](NC(=O)C(O)C3CNCCN3)C[C@@H]2N)[C@H](N)C[C@@H]1O (single isomer, unassigned) [(9), 1-N-[2-hydroxy-2-(piperazin-2-yl)acetyl]tobramycin] | 12.5 | 6.2 | 0.1 | 25.0 | 25.0 | 6.2 | – | 3.1 | 3.1 | – | 100 (≈ 164 µM) | – | – | – | – | – | – | – | – | – | Minimum Inhibitory Concentration (MIC) (Proteus inconstans In-27): > 100.0 µg/mL; Minimum Inhibitory Concentration (MIC) [8]: 25.0 µg/mL
NC[C@H]1O[C@H](O[C@H]2[C@H](O)[C@@H](O[C@H]3O[C@H](CO)[C@@H](O)[C@H](N)[C@H]3O)[C@H](NC(=O)C(O)C3CCNC3)C[C@@H]2N)[C@H](N)C[C@@H]1O (stereo partly shown) [(1), 1-N-[2-hydroxy-2-(pyrrolidin-3-yl)acetyl]tobramycin] | – | – | – | – | – | – | – | – | – | 0.1 (≈ 0.168 µM) | 12.5 (≈ 21 µM) | 0.8 (≈ 1.35 µM) | 1.6 (≈ 2.69 µM) | – | 1.6 (≈ 2.69 µM) | 3.1 (≈ 5.21 µM) | 100 (≈ 168 µM) | 1.6 (≈ 2.69 µM) | 6.2 (≈ 10.4 µM) | 0.8 (≈ 1.35 µM) | MIC [8, 10]: 3.1 µg/mL (≈ 5.21 µM)
NC[C@H]1O[C@H](O[C@H]2[C@H](O)[C@@H](O[C@H]3O[C@H](CO)[C@@H](O)[C@H](N)[C@H]3O)[C@H](NC(=O)C(O)C3CNCCN3)C[C@@H]2N)[C@H](N)C[C@@H]1O (single isomer, unassigned) [(8), 1-N-[2-hydroxy-2-(piperazin-2-yl)acetyl]tobramycin] | 0.8 | 1.6 | – | 1.6 | 3.1 | 0.8 | 25 (≈ 41 µM) | 0.8 | 0.8 | 0.1 (≈ 0.164 µM) | – | – | – | 12.5 (≈ 20.5 µM) | – | – | 100 (≈ 164 µM) | – | – | – | –
NC[C@H]1O[C@H](O[C@H]2[C@H](O)[C@@H](O[C@H]3O[C@H](CO)[C@@H](O)[C@H](N)[C@H]3O)[C@H](NC(=O)C(O)C3CNC3)C[C@@H]2N)[C@H](N)C[C@@H]1O (stereo partly shown) [(3), 1-N-[2-hydroxy-2-(azetidin-3-yl)acetyl]tobramycin] | – | – | – | – | – | – | 6.2 (≈ 10.7 µM) | – | – | 0.1 (≈ 0.172 µM) | – | 0.4 (≈ 0.689 µM) | 0.4 (≈ 0.689 µM) | – | 0.4 (≈ 0.689 µM) | 0.8 (≈ 1.38 µM) | 50 (≈ 86.1 µM) | 0.4 (≈ 0.689 µM) | 1.6 (≈ 2.76 µM) | 0.4 (≈ 0.689 µM) | MIC [8, 10]: 1.6 µg/mL (≈ 2.76 µM)
NC[C@H]1O[C@H](O[C@H]2[C@H](O)[C@@H](O[C@H]3O[C@H](CO)[C@@H](O)[C@H](N)[C@H]3O)[C@H](NC(=O)C(O)C3CCCN3)C[C@@H]2N)[C@H](N)C[C@@H]1O (stereo partly shown) [(5), 1-N-[2-hydroxy-2-(pyrrolidin-2-yl)acetyl]tobramycin] | 6.2 | 6.2 | 0.1 | – | 25.0 | 6.2 | – | 3.1 | 6.2 | – | 100 (≈ 168 µM) | – | – | 25 (≈ 42 µM) | – | – | > 100 | – | – | – | MIC [3, 11]: 12.5 µg/mL (≈ 21 µM)
NC[C@H]1O[C@H](O[C@H]2[C@H](O)[C@@H](O[C@H]3O[C@H](CO)[C@@H](O)[C@H](N)[C@H]3O)[C@H](NC(=O)C(O)C3CCN3)C[C@@H]2N)[C@H](N)C[C@@H]1O (stereo partly shown) [(2), 1-N-[2-hydroxy-2-(azetidin-2-yl)acetyl]tobramycin] | – | – | – | – | – | – | 50 (≈ 86.1 µM) | – | – | 0.1 (≈ 0.172 µM) | – | 0.8 (≈ 1.38 µM) | 1.6 (≈ 2.76 µM) | 12.5 (≈ 21.5 µM) | 3.1 (≈ 5.34 µM) | 3.1 (≈ 5.34 µM) | > 100 | 6.2 (≈ 10.7 µM) | 6.2 (≈ 10.7 µM) | 1.6 (≈ 2.76 µM) | –
NC[C@H]1O[C@H](O[C@H]2[C@H](O)[C@@H](O[C@H]3O[C@H](CO)[C@@H](O)[C@H](N)[C@H]3O)[C@H](NC(=O)C(O)C3CCCNC3)C[C@@H]2N)[C@H](N)C[C@@H]1O (stereo partly shown) [(4), 1-N-[2-hydroxy-2-(piperidin-3-yl)acetyl]tobramycin] | – | – | – | – | – | – | 25 (≈ 41.1 µM) | – | – | 0.1 (≈ 0.164 µM) | – | 1.6 (≈ 2.63 µM) | 12.5 (≈ 20.5 µM) | 25 (≈ 41.1 µM) | 1.6 (≈ 2.63 µM) | 3.1 (≈ 5.09 µM) | > 100 | 1.6 (≈ 2.63 µM) | > 100 | 1.6 (≈ 2.63 µM) | –
NC[C@H]1O[C@H](O[C@H]2[C@H](O)[C@@H](O[C@H]3O[C@H](CO)[C@@H](O)[C@H](N)[C@H]3O)[C@H](NC(=O)C(O)C3CCCN3)C[C@@H]2N)[C@H](N)C[C@@H]1O (stereo partly shown) [(7), 1-N-[2-hydroxy-2-(pyrrolidin-2-yl)acetyl]tobramycin] | 25.0 | 12.5 | 0.4 | 50.0 | 100.0 | – | – | 6.2 | – | – | – | – | – | – | – | – | – | – | – | – | Minimum Inhibitory Concentration (MIC) (Proteus inconstans In-27): > 100.0 µg/mL; MIC [5, 12]: 12.5 µg/mL (≈ 21 µM); Minimum Inhibitory Concentration (MIC) ([6]; Serratia marcescens ATCC 13880): > 100.0 µg/mL; MIC ([7]; PS24, read-out: Minimum Inhibitory Concentration (MIC)): 12.5 µg/mL (≈ 21 µM); Minimum Inhibitory Concentration (MIC) [8]: 50.0 µg/mL

— patent US4200628A, “Novel aminoglycoside derivatives” (Shionogi & Co., Ltd., priority 1977, dated 1980)
